For one experiment, the system named is HUFEC. Description: Cell Migration Assay (CMA) Test, inhibitory rate with control (-) correction. The conditions noted are these: 125 μl of 0.32 mM sample solution in 4.0 ml medium, 80% or more = remarkable; for inhibition at 320 µM (stock): Homo sapiens, 24 h. It is filed as cell-based, human. Here is the method: (§1) Samples were prepared using the present compounds of Compound No. I-60 through I-315. More specifically, 32 μl of a 20 mM sample solution dissolved in dimethylsulfoxide (DMSO) were removed and brought to a volume of 1 ml with phosphate-buffered saline (PBS) to prepare a sample solution having a concentration of 0.32 mM (containing 3.2% DMSO).
After disseminating the 7th subculture of […] obtained from the first generation at 4 ml/well (3.0×10^5 cells/well) in a collagen-coated 6-well plate (NUNC), the cells were cultured for 48 hours at 37° C. in the presence of 5% CO2. The cells reached nearly a completely confluent state as a result of this culturing.
A double-edged, disposable razor blade was divided into four sections, of which one of those sections was pinched between a pair of forceps. Using this piece of razor blade, the cell surface in the above confluent state was scraped off.
After washing the surface of the wells from which the cells had been scraped off with medium, 4.0 ml of fresh M199 (2+) medium were placed in the wells. 4.0 ml of M199 medium were added to the control (-) well.
125 μl of sample solution (0.32 mM, containing 3.2% dimethylsulfoxide) were added to the wells.
125 μl of PBS solution containing 3.2% dimethylsulfoxide were added to the control wells instead of sample. The cells were cultured for 24 hours at 37° C. in the presence of 5% CO2. After discarding the culture liquid, the cells were fixed for 30 minutes with methanol. Next, after […] the cells for 4 hours with Giemsa stain, the plates were washed with tap water and air dried.
Measurement of cell migration was performed by microscopically counting the number of cells that had newly migrated within the range of a 1 mm×1 mm block. […] The total number of cells counted in blocks 1 through 5 were then totaled to determine the overall total number of cells. Four fields were counted for each well.
Evaluation was performed determining the cell migration inhibitory rate (%) according to the following equation.
Inhibitory rate=100-((number of migrating cells to which sample was added-number of migrating cells of control (-))×100/(number of migrating cells of control (+)-number of migrating cells of control (-)))
If this inhibitory rate was 80% or more, cell migration was assessed as being remarkable.

The test system of experiment [1] is human umbilical-vein endothelial cells (HUVEC). In words: Tube Formation Assay (TFA) Test, HUVEC in collagen gel. It is filed as cell-based. Conditions: Tables 75-83, 0.32 mM sample solution, method as for Compounds 1 through 60; for inhibition at 320 µM (stock): Homo sapiens, HUVEC, read-out: TFA Inhibition rate (%). Here is the method: Furthermore, the sample liquids of compounds used in the CPA and CMA tests were prepared in the manner described below. Firstly, after weighing out each compound, a calculated amount of DMSO was added. After dissolving the compound in the DMSO, phosphate buffered physiological saline (PBS (-)) was added to bring the sample concentration to 1 mg/ml in PBS (-). The amount of DMSO used to dissolve the compounds was adjusted in advance to that the concentration of DMSO at that time was 5%. The resulting liquids were diluted 10-fold with 5% DMSO-PBS (-) solution to prepare sample solutions having a concentration of 0.1 mg/ml. In the TFA test, 320 μl of the prepared 1 mg/ml sample solutions were removed followed by addition of 680 μl of PBS (-) to prepare samples having a concentration of […]. Moreover, 100 μl of this solution was removed followed by addition of 900 μl of PBS (-) to dilute 10-fold and prepare samples having a concentration of 1 μg/ml. P [Cell Proliferation Assay (CPA) Test]
To begin with, 8 volumes of Type 1-A cell matrix (manufactured by Gibco Co.), 1 volume of 10×M119, and 1 volume of reconstituted buffer [200 mM HEPES, 0.05 N sodium hydroxide, 260 mM sodium bicarbonate] were slowly mixed under cooling with ice while avoiding bubbling to form a collagen gel. This collagen gel was distributed in a NUNC 24-well plate at 310 μl/well followed by allowing to stand undisturbed for 2 hours at 37° C. to solidify the gel.
Next, the 7th subculture of HUVEC (1×10^5 cells/ml) obtained from the first generation in the same manner as above were disseminated at 500 μl/well. The cells were cultured for 2 hours at 37° C. to allow the cells to make contact with the collagen. After then removing the medium by aspiration, 50 μl of sample solution were added followed by addition of 310 μl/well of freshly prepared collagen gel and culturing for 1 hour and 10 minutes at 37° C. to solidify the double-layer gel.
1 ml/well of M-199 medium containing 20% FCS, 30 ng /ml of b-FGF and 0.1 μM PMA were added to the wells followed by culturing for 20 hours at 37° C. in the presence of 5% CO2.
Measurement of the lengths of the formed tubes was performed using the public domain NIH Image with a computer.
Evaluation was performed by calculating the inhibition rate (%) of tube formation according to the following formula.
Inhibition rate (%)=100-((formed tube length in presence of sample-formed tube length in presence of control (-))×100/(formed tube length in presence of control (+)-formed tube length in presence of control (-)))
as §1
The testing method used for these compounds was the same as that used for the compounds of Compound No. 1 through 60 previously described.

Molecules are shown by their SMILES.

One may read the inhibition as the change of the read-out against control, counted positive when it falls. Regarding `CCCCCCNC(=O)O[C@@H]1OC=C(C(=O)OC)[C@H]2CC[C@H](C)[C@@H]12` [I-175], the inhibition at 320 µM (stock) in the experiment on HUFEC is 19.5%; in experiment [1], 7.5%.

On to `COC(=O)C1=CO[C@@H](OC(=O)N(C)C)[C@@H]2C(C)=CC[C@H]12` [I-136], for which the inhibition at 320 µM (stock) with HUFEC turned out to be 8.3%; in experiment [1], 15.6%.

Turning to `C[C@]12O[C@H]1C[C@@H]1C(C(=O)O)=CO[C@@H](OC(=O)NCCCl)[C@@H]12` [I-66], the inhibition at 320 µM (stock) with HUFEC is 30.5%; in experiment [1], 19.7%.

Consider `COC(=O)C1=CO[C@@H](OC(=O)NCCCl)[C@@H]2C(C)=CC[C@H]12` [I-173], for which the figures for the inhibition at 320 µM (stock) (in the experiment on HUFEC; in experiment [1]) were 108% and 11.4%, respectively.

As for `COC(=O)C1=CO[C@@H](OC(=O)NC(C)C)[C@H]2[C@@H]1CC[C@@H]2C` [I-261], the inhibition at 320 µM (stock) in the experiment with HUFEC came to 37.5%; in experiment [1] it was 32.1%.

Take `COC(=O)C1=CO[C@@H](OC(=O)NCc2cccnc2)[C@@H]2C(C)=CC[C@H]12` [I-76]: the inhibition at 320 µM (stock) with HUFEC worked out at 7.6%; in experiment [1] it was 4.6%.

Turning to `CCOc1ccccc1N1CCN(C(=O)O[C@@H]2OC=C(C(=O)OC)[C@H]3CC[C@H](C)[C@@H]23)CC1` [I-243], the inhibition at 320 µM (stock) in the experiment with HUFEC amounted to 6.7%; in experiment [1], 8.1%.

On to `COC(=O)C1=CO[C@@H](OC(=O)NCC(OC)OC)[C@H]2[C@@H]1CC[C@@H]2C` [I-201], for which the figures for the inhibition at 320 µM (stock) (in the experiment with HUFEC; in experiment [1]) were 8.5% and 18.5%, respectively.

For the compound `COC(=O)C1=CO[C@@H](OC(=O)Nc2ccc(Br)cc2)[C@@H]2C(C)=CC[C@H]12` [I-159], the inhibition at 320 µM (stock) with HUFEC worked out at 39.5%; in experiment [1] it was 9.8%.

With `CNC(=O)O[C@@H]1OC=C(C(=O)O)[C@H]2CC=C(C)[C@@H]12` [I-313], in the experiment on HUFEC (24 hours), the “CMA Inhibition rate (%)” value amounted to 60.2%. Moreover, the “TFA (inhibition rate, %)” value in experiment [1] is on record as 27.0%.

As to `CCOC(=O)CCCNC(=O)O[C@@H]1OC=C(C(=O)OC)[C@H]2CC=C(C)[C@@H]12` [I-135], the inhibition at 320 µM (stock) worked out at 23.4% in the experiment on HUFEC and 4.7% in experiment [1].

Consider `COC(=O)C1=CO[C@@H](OC(=O)N2CCC(Cc3ccccc3)CC2)[C@H]2[C@@H]1CC[C@@H]2C` [I-199], for which the inhibition at 320 µM (stock) with HUFEC worked out at 25%; in experiment [1], 6%.

Regarding `COC(=O)C1=CO[C@@H](OC(=O)N2CCOCC2)[C@H]2[C@@H]1CC[C@@H]2C` [I-188], the inhibition at 320 µM (stock) in the experiment with HUFEC was found to be 7.1%; in experiment [1], 10.2%.

Regarding `COC(=O)C1=CO[C@@H](OC(=O)NCCc2cccs2)[C@H]2[C@@H]1CC[C@@H]2C` [I-197], the inhibition at 320 µM (stock) was 20% in the experiment with HUFEC and 4.5% in experiment [1].

Take `COC(=O)C1=CO[C@@H](OC(=O)NCCCN2CCOCC2)[C@H]2[C@@H]1CC[C@@H]2C` [I-229]: the inhibition at 320 µM (stock) in the experiment with HUFEC is 19.5%; in experiment [1] it was 3%.

As to `CCN1CCN(C(=O)O[C@@H]2OC=C(C(=O)OC)[C@H]3CC[C@H](C)[C@@H]23)CC1` [I-200], the inhibition at 320 µM (stock) in the experiment with HUFEC amounted to 25%; in experiment [1], 5.6%.

Take `COC(=O)C1=CO[C@@H](OC(=O)NCc2ccc(Cl)cc2)[C@H]2[C@@H]1CC[C@@H]2C` [I-214]: the inhibition at 320 µM (stock) is 11.7% with HUFEC and 5.7% in experiment [1].

As for `COC(=O)C1=CO[C@@H](OC(=O)NCc2ccc(Br)cc2)[C@H]2[C@@H]1CC[C@@H]2C` [I-245], the inhibition at 320 µM (stock) is 27.3% in the experiment with HUFEC and 6.3% in experiment [1].

`C[C@@H]1CC[C@@H]2C(C(=O)N3CCN(CCO)CC3)=COC[C@H]12` [I-305]: the inhibition at 320 µM (stock) in the experiment on HUFEC is 7.6%; in experiment [1] it was 23.1%.

With `CCN1CCN(C(=O)O[C@@H]2OC=C(C(=O)OC)[C@H]3CC=C(C)[C@@H]23)CC1` [I-95], the inhibition at 320 µM (stock) in the experiment with HUFEC was 9.8%; in experiment [1], 4.5%.

With `COC(=O)C1=CO[C@@H](OC(=O)Nc2ccc([N+](=O)[O-])cc2)[C@@H]2C(C)=CC[C@H]12` [I-168], the inhibition at 320 µM (stock) amounted to 17.2% in the experiment with HUFEC and 4.2% in experiment [1].

Turning to `COC(=O)C1=CO[C@@H](OC(=O)Nc2ccc(Cl)cc2)[C@H]2[C@@H]1CC[C@@H]2C` [I-260], the values for the inhibition at 320 µM (stock) (in the experiment with HUFEC; in experiment [1]) were 8.9% and 2.5%, respectively.

Consider `COC(=O)C1=CO[C@@H](OC(=O)NC2Cc3ccccc3C2)[C@@H]2C(C)=CC[C@H]12` [I-145], for which the results for the inhibition at 320 µM (stock) (with HUFEC; in experiment [1]) were 27.3% and 17.5%, respectively.

Turning to `COC(=O)C1=CO[C@@H](OC(=O)Nc2ccc(C)cc2)[C@@H]2C(C)=CC[C@H]12` [I-169], the inhibition at 320 µM (stock) in the experiment with HUFEC is 12.6%; in experiment [1], 13.7%.

For the compound `COC(=O)C1=CO[C@@H](OC(=O)N(CCO)CCO)[C@H]2[C@@H]1CC[C@@H]2C` [I-240], the results for the inhibition at 320 µM (stock) (in the experiment with HUFEC; in experiment [1]) were 8.5% and 7.4%, respectively.

`COC(=O)C1=CO[C@@H](OC(=O)N(CCO)CCO)[C@@H]2C(C)=CC[C@H]12` [I-138]: the inhibition at 320 µM (stock) in the experiment with HUFEC was 3.5%; in experiment [1], 2.5%.

With `CCOC(=O)c1ccc(NC(=O)O[C@@H]2OC=C(C(=O)OC)[C@H]3CC[C@H](C)[C@@H]23)cc1` [I-268], the inhibition at 320 µM (stock) was 8.4% in the experiment with HUFEC and 7.6% in experiment [1].

Turning to `CNC(=O)O[C@@H]1OC=C(C(=O)OC)[C@H]2CC=C(CF)C12` (stereo in doubt) [I-314, (1S,4aS,7aR)-7-(fluoromethyl)-1-(methylcarbamoyloxy)-1,4a,5,7a-tetrahydrocyclopenta [c] pyrane-4-carboxylic acid methylester], the inhibition at 320 µM (stock) was determined as 47.2% in the experiment with HUFEC and 9.4% in experiment [1].

For `COC(=O)C1=CO[C@@H](OC(=O)NCc2ccncc2)[C@H]2[C@@H]1CC[C@@H]2C` [I-221], the inhibition at 320 µM (stock) in the experiment on HUFEC came out at 15.6%; in experiment [1] it was 24.5%.

As to `COC(=O)C1=COC[C@H]2[C@@H]1C[C@@H]1O[C@@]12C` [I-303], the inhibition at 320 µM (stock) with HUFEC was 6.1%; in experiment [1], 30.6%.

Regarding `COC(=O)C1=CO[C@@H](OC(=O)N2CCSCC2)[C@@H]2C(C)=CC[C@H]12` [I-114], the inhibition at 320 µM (stock) amounted to 9.4% in the experiment on HUFEC and 6.8% in experiment [1].

On to `COC(=O)C1=CO[C@@H](OC(=O)Nc2ccc(F)cc2)[C@H]2[C@@H]1CC[C@@H]2C` [I-264], for which the inhibition at 320 µM (stock) in the experiment on HUFEC came to 6.7%; in experiment [1] it was 29.2%.

As for `COC(=O)C1=CO[C@@H](OC(=O)NC2Cc3ccccc3C2)[C@H]2[C@@H]1CC[C@@H]2C` [I-247], the inhibition at 320 µM (stock) in the experiment with HUFEC came out at 23.4%; in experiment [1], 9.7%.

These data come from US6225478A, “Iridoid derivatives and neovascularization inhibitors containing the same as active ingredient” (Tsumura & Co., priority 1999, dated 2001).
